According to patent publication US20240018163A1, “NEW THIAZOLOPYRIMIDINONE DERIVATIVES” (Hoffmann-La Roche Inc., priority 2021, published 2024):

What follows are compounds tested on mutant HTT protein (mHTT) (assay: Homogeneous Time Resolved Fluorescence (HTRF) assay for HTT lowering). Settings: reduction of mHTT in Huntington patient human cells (GENEAe020-A cell line), 48 hours incubation, mean from three replicates.
Format: cell-based
Experimental: Homogeneous Time Resolved Fluorescence for HTT lowering
The HTRF assay was adapted from Weiss et al. (Analytical Biochemistry Volume 395, Issue 1, 1 Dec. 2009, Pages 8-15 and Analytical Biochemistry Volume 410, 2011, Pages 304-306) to cells from GENEAe020-A cell line (https://hpscreg.eu/cell-line/GENEAe020-A).
Compounds were tested for the effect of mutant HTT levels in Huntington patient human cells (GENEAe020-A cell line) using Homogeneous Time Resolved Fluorescence (HTRF) directed towards mutant HTT protein (mHTT). The GENEAe020-A cell line was derived by Genea Biocells from human blastocysts of HD donors. After assessing viability, cells were plated into 384 well collagen coated plates in growth media. Once cells adhered, media was removed and test compounds dissolved in DMSO were diluted with buffer solution and added to the adherent cells. Controls included experiments with no cells, DMSO with no compound, and Hsp90 inhibitor control. Cells were incubated with compounds and controls for 48 hours. Then, the cells were lysed and transferred to an assay plate containing HTRF labeled monoclonal antibodies developed by Paul Patterson (Ko et al., Brain Research Bulletin, Volume 56, Numbers 3 and 4, 2001, Pages 319-329) which recognize specific areas of the HTT protein. The terbium labeled “donor” antibody (2B7) binds to the N-terminus of the HTT protein and the Alexa488 labeled “acceptor” antibody (MW1) is specific for the polyglutamine region of the protein. Binding of the acceptor labeled antibody is more efficient for the extended polyglutamine repeats of mutant HTT protein which translates into a signal boost which enables the specific measurement of mutant HTT protein level. The HTRF donor and acceptor detection reagents were incubated with the cell lysate and the ratio between the signals of the two fluorophores is indicative of the relative quantities of mHTT.

For `COc1cc(-c2cc(=O)n3cc([C@]4(F)CCNC[C@H]4F)sc3n2)nn2cc(C)nc12` (racemic) [Example 51, 7-(8-methoxy-2-methyl-imidazo[1,2-b]pyridazin-6-yl)-2-[rac-(3R,4S)-3,4-difluoro-4-piperidyl]thiazolo[3,2-a]pyrimidin-5-one], which EC50 is on record?
Its EC50 is 102 nM.

How did the EC50 turn out when `COc1cc(-c2cc(=O)n3cc([C@]4(F)CCNC[C@@H]4F)sc3n2)nn2cc(C)nc12` (racemic) [Example 52, 7-(8-methoxy-2-methyl-imidazo[1,2-b]pyridazin-6-yl)-2-[rac-(3S,4S)-3,4-difluoro-4-piperidyl]thiazolo[3,2-a]pyrimidin-5-one] was run?
Its EC50 is 237 nM.

Which EC50 does the source give for `Cc1cn2nc(-c3cc(=O)n4cc([C@]5(F)CCNC[C@H]5F)sc4n3)cc(C)c2n1` (racemic) [Example 53, 7-(2,8-dimethylimidazo[1,2-b]pyridazin-6-yl)-2-[rac-(3R,4S)-3,4-difluoro-4-piperidyl]thiazolo[3,2-a]pyrimidin-5-one] here?
Its EC50 is 132 nM.

`Cc1cn2nc(-c3cc(=O)n4cc([C@]5(F)CCNC[C@@H]5F)sc4n3)cc(C)c2n1` (racemic) [Example 54, 7-(2,8-dimethylimidazo[1,2-b]pyridazin-6-yl)-2-[rac-(3S,4S)-3,4-difluoro-4-piperidyl]thiazolo[3,2-a]pyrimidin-5-one] was tested. Which EC50 did it give?
Its EC50 is 556 nM.

How did the EC50 turn out when `Cc1cn2nc(-c3cc(=O)n4cc(N5CCNCC5)sc4n3)cc(C)c2n1` [Example 1, 7-(2,8-dimethylimidazo[1,2-b]pyridazin-6-yl)-2-piperazin-1-yl-thiazolo[3,2-a]pyrimidin-5-one] was run?
The EC50 was 46 nM.

`Cc1cn2nc(-c3cc(=O)n4cc(C5=CCNCC5)sc4n3)cc(C)c2n1` [Example 2, 7-(2,8-dimethylimidazo[1,2-b]pyridazin-6-yl)-2-(1,2,3,6-tetrahydropyridin-4-yl)thiazolo[3,2-a]pyrimidin-5-one] was tested. Which EC50 did it give?
The EC50 was 54 nM.

Which EC50 does the source give for `Cc1cn2nc(-c3cc(=O)n4cc(N5CCNC(C)(C)C5)sc4n3)cc(C)c2n1` [Example 3, 7-(2,8-dimethylimidazo[1,2-b]pyridazin-6-yl)-2-(3,3-dimethylpiperazin-1-yl)thiazolo[3,2-a]pyrimidin-5-one] here?
Its EC50 is 625 nM.

With `Cc1cn2nc(-c3cc(=O)n4cc(N5CCNC6(CC6)C5)sc4n3)cc(C)c2n1` [Example 4, 2-(4,7-diazaspiro[2.5]octan-7-yl)-7-(2,8-dimethylimidazo[1,2-b]pyridazin-6-yl)thiazolo[3,2-a]pyrimidin-5-one] as the compound, how does the EC50 read?
Its EC50 is 3530 nM.

Which EC50 does the source give for `Cc1nc2c(F)cc(-c3cc(=O)n4cc(N5CCNCC5)sc4n3)cc2o1` [Example 5, 7-(4-fluoro-2-methyl-1,3-benzoxazol-6-yl)-2-piperazin-1-yl-thiazolo[3,2-a]pyrimidin-5-one] here?
The EC50 was 499 nM.

For `Cc1cn2nc(-c3cc(=O)n4cc(N5CCN[C@@H](C)C5)sc4n3)cc(C)c2n1` [Example 6, 7-(2,8-dimethylimidazo[1,2-b]pyridazin-6-yl)-2-[(3S)-3-methylpiperazin-1-yl]thiazolo[3,2-a]pyrimidin-5-one], which EC50 is on record?
Its EC50 is 268 nM.

For `Cc1cn2nc(-c3cc(=O)n4cc(N5CCN[C@H](C)C5)sc4n3)cc(C)c2n1` [Example 7, 7-(2,8-dimethylimidazo[1,2-b]pyridazin-6-yl)-2-[(3R)-3-methylpiperazin-1-yl]thiazolo[3,2-a]pyrimidin-5-one], which EC50 is on record?
The EC50 was 52 nM.

Which EC50 does the source give for `Cc1cn2nc(-c3cc(=O)n4cc(N5CC(C)NC(C)C5)sc4n3)cc(C)c2n1` (stereo not drawn) [Example 8, 7-(2,8-dimethylimidazo[1,2-b]pyridazin-6-yl)-2-(3,5-dimethylpiperazin-1-yl)thiazolo[3,2-a]pyrimidin-5-one] here?
The EC50 was 386 nM.

Which EC50 does the source give for `Cc1cn2nc(-c3cc(=O)n4cc(N5CCN6CCC[C@H]6C5)sc4n3)cc(C)c2n1` [Example 9, 7-(2,8-dimethylimidazo[1,2-b]pyridazin-6-yl)-2-[(8aS)-3,4,6,7,8,8a-hexahydro-1H-pyrrolo[1,2-a]pyrazin-2-yl]thiazolo[3,2-a]pyrimidin-5-one] here?
Its EC50 is 796 nM.

How did the EC50 turn out when `Cc1cn2nc(-c3cc(=O)n4cc(N5CCNCC5)sc4n3)ccc2n1` [Example 10, 7-(2-methylimidazo[1,2-b]pyridazin-6-yl)-2-piperazin-1-yl-thiazolo[3,2-a]pyrimidin-5-one] was run?
Its EC50 is 283 nM.

With `Cc1cn2nc(-c3cc(=O)n4cc(N5CCNCC5)sc4n3)cc(C(F)(F)F)c2n1` [Example 11, 7-[2-methyl-8-(trifluoromethyl)imidazo[1,2-b]pyridazin-6-yl]-2-piperazin-1-yl-thiazolo[3,2-a]pyrimidin-5-one] as the compound, how does the EC50 read?
Its EC50 is 19 nM.

How did the EC50 turn out when `CCc1cc(-c2cc(=O)n3cc(N4CCNCC4)sc3n2)nn2cc(C)nc12` [Example 12, 7-(8-ethyl-2-methyl-imidazo[1,2-b]pyridazin-6-yl)-2-piperazin-1-yl-thiazolo[3,2-a]pyrimidin-5-one] was run?
The EC50 was 104 nM.

With `COc1cc(-c2cc(=O)n3cc(N4CCNCC4)sc3n2)nn2cc(C)nc12` [Example 13, 7-(8-methoxy-2-methyl-imidazo[1,2-b]pyridazin-6-yl)-2-piperazin-1-yl-thiazolo[3,2-a]pyrimidin-5-one] as the compound, how does the EC50 read?
Its EC50 is 118 nM.

Which EC50 does the source give for `Cc1cn2nc(-c3cc(=O)n4cc(N5C6CCC5CNC6)sc4n3)cc(C)c2n1` [Example 14, 2-(3,8-diazabicyclo[3.2.1]octan-8-yl)-7-(2,8-dimethylimidazo[1,2-b]pyridazin-6-yl)thiazolo[3,2-a]pyrimidin-5-one] here?
The EC50 was 931 nM.

How did the EC50 turn out when `Cc1cn2nc(-c3cc(=O)n4cc(N5CCN6CCC[C@@H]6C5)sc4n3)cc(C)c2n1` [Example 15, 7-(2,8-dimethylimidazo[1,2-b]pyridazin-6-yl)-2-[(8aR)-3,4,6,7,8,8a-hexahydro-1H-pyrrolo[1,2-a]pyrazin-2-yl]thiazolo[3,2-a]pyrimidin-5-one] was run?
Its EC50 is 123 nM.

With `Cc1cn2nc(-c3cc(=O)n4cc(N5C[C@@H]6C[C@H]5CN6)sc4n3)cc(C)c2n1` [Example 16, 7-(2,8-dimethylimidazo[1,2-b]pyridazin-6-yl)-2-[(1S,4S)-2,5-diazabicyclo[2.2.1]heptan-2-yl]thiazolo[3,2-a]pyrimidin-5-one] as the compound, how does the EC50 read?
Its EC50 is 9540 nM.

Which EC50 does the source give for `Cc1cn2nc(-c3cc(=O)n4cc(N5CC6CNCC6C5)sc4n3)cc(C)c2n1` (stereo not drawn) [Example 17, 2-(2,3,3a,4,6,6a-hexahydro-1H-pyrrolo[3,4-c]pyrrol-5-yl)-7-(2,8-dimethylimidazo[1,2-b]pyridazin-6-yl)thiazolo[3,2-a]pyrimidin-5-one] here?
Its EC50 is 421 nM.

How did the EC50 turn out when `Cc1cn2nc(-c3cc(=O)n4cc(N5CCNCC5)sc4n3)cc(C3CC3)c2n1` [Example 18, 7-(8-cyclopropyl-2-methyl-imidazo[1,2-b]pyridazin-6-yl)-2-piperazin-1-yl-thiazolo[3,2-a]pyrimidin-5-one] was run?
Its EC50 is 469 nM.

For `C=C(C)c1cc(-c2cc(=O)n3cc(N4CCNCC4)sc3n2)nn2cc(C)nc12` [Example 19, 7-(8-isopropenyl-2-methyl-imidazo[1,2-b]pyridazin-6-yl)-2-piperazin-1-yl-thiazolo[3,2-a]pyrimidin-5-one], which EC50 is on record?
The EC50 was 3000 nM.

With `Cc1nc2c(C)cc(-c3cc(=O)n4cc(N5CCNCC5)sc4n3)nc2o1` [Example 20, 7-(2,7-dimethyloxazolo[5,4-b]pyridin-5-yl)-2-piperazin-1-yl-thiazolo[3,2-a]pyrimidin-5-one] as the compound, how does the EC50 read?
The EC50 was 136 nM.

For `Cc1cn2nc(-c3cc(=O)n4cc(N5CC[C@H](N6CCCC6)C5)sc4n3)cc(C)c2n1` [Example 21, 7-(2,8-dimethylimidazo[1,2-b]pyridazin-6-yl)-2-[(3S)-3-pyrrolidin-1-ylpyrrolidin-1-yl]thiazolo[3,2-a]pyrimidin-5-one], which EC50 is on record?
Its EC50 is 4200 nM.

Which EC50 does the source give for `Cc1cn2nc(-c3cc(=O)n4cc(N5CCC6(CCNCC6)C5)sc4n3)cc(C)c2n1` [Example 22, 2-(2,8-diazaspiro[4.5]decan-2-yl)-7-(2,8-dimethylimidazo[1,2-b]pyridazin-6-yl)thiazolo[3,2-a]pyrimidin-5-one] here?
Its EC50 is 1320 nM.

Which EC50 does the source give for `Cc1cn2nc(-c3cc(=O)n4cc(N5CCNCC5)sc4n3)cc(C(C)C)c2n1` [Example 23, 7-(8-isopropyl-2-methyl-imidazo[1,2-b]pyridazin-6-yl)-2-piperazin-1-yl-thiazolo[3,2-a]pyrimidin-5-one] here?
The EC50 was 671 nM.

Which EC50 does the source give for `Cc1cn2nc(-c3cc(=O)n4cc(C5CCNCC5)sc4n3)cc(C)c2n1` [Example 24, 7-(2,8-dimethylimidazo[1,2-b]pyridazin-6-yl)-2-(4-piperidyl)thiazolo[3,2-a]pyrimidin-5-one] here?
The EC50 was 28 nM.

How did the EC50 turn out when `Cc1cn2nc(-c3cc(=O)n4cc(N5CCN6CCC[C@@H]6C5)sc4n3)cc(C(F)(F)F)c2n1` [Example 25, 7-[2-methyl-8-(trifluoromethyl)imidazo[1,2-b]pyridazin-6-yl]-2-[(8aR)-3,4,6,7,8,8a-hexahydro-1H-pyrrolo[1,2-a]pyrazin-2-yl]thiazolo[3,2-a]pyrimidin-5-one] was run?
Its EC50 is 454 nM.

Which EC50 does the source give for `Cc1cn2nc(-c3cc(=O)n4cc(C5(F)CCNCC5)sc4n3)cc(C)c2n1` [Example 26, 7-(2,8-dimethylimidazo[1,2-b]pyridazin-6-yl)-2-(4-fluoro-4-piperidyl)thiazolo[3,2-a]pyrimidin-5-one] here?
The EC50 was 128 nM.
